We go through one compound from patent publication US9642859B2, “Use of capsazepine and analogs thereof to treat cancer” (THE BOARD OF REGENTS OF THE UNIVERSITY OF TEXAS SYSTEM, priority 2012, dated 2017).

The subject of series [1] is OSCC cell lines (HSC3, SCC4, and SCC25). In words: Apoptosis studies, microscopic analysis of OSCC cells. The following applies: CPZ 30, 60 or 90 μM, 24 hrs. It is filed as cell-based, human. The procedure:
FIGS. 1E-1, 1E-2, and 1E-3. […] In FIG. 1E-1, magnifications of (from left to right) vehicle control HSC3 cells (a) and HSC3 cells treated with 30 μM CPZ (b), 60 μM CP(c), or 90 μM CPZ(d). In FIG. 1E-2, magnifications of (from left to right) vehicle control SCC4 cells (a) and SCC4 cells treated with 30 μM CPZ (b), 60 μM CPZ (c), 90 μM CPZ (d), while, in FIG. 1E-3, magnifications of (from left to right) vehicle control SCC25 cells (a) and SCC25 cells treated with 30 μM CPZ (b), 60 μM CPZ (c), or 90 μM CPZ (d).
To determine if reduced cell viability was due to apoptosis, flow-sort analysis and microscopic analysis of cells in three OSCC cell lines (HSC3, SCC4, and SCC25) following treatment were performed. […] (Compare FIGS. 1E-1(b) to (d), FIGS. 1E-2(b)-(d), and FIGS. 1E-3(b) to (d) with FIG. 1E-1(a), FIG. 1E-2(a), and FIG. 1E-3(a), respectively.)

A further series has as its system SCC4 xenografts. Briefly: OSCC mouse xenograft model, SCC4. It is filed as in vivo, athymic nude (nu/nu) mice. An excerpt:
(§1) Animals. Six week-old female athymic nude (nu/nu) mice were purchased from HARLAN Laboratories (Indianapolis, Ind.) and used in a laminar air-flow cabinet under pathogen-free conditions. They were provided with a 12-h light/dark schedule at controlled temperature and humidity with food and water ad libitum. Mice were allowed to acclimate for at least one week prior to the start of the experiments. All procedures were approved by the UTHSCSA (University of Texas Health Science Center—San Antonio) Institutional Animal Care and Use Committee.
OSCC Mouse Xenograft Model. Mice were injected subcutaneously in the right flank with 2×10^6 HSC3, SCC4, or SCC25 cells in 0.1 ml of sterile phosphate buffered saline (each of these cell lines is published in scientific literature). Four weeks post-inoculation, tumors had grown to an average volume of 110 mm^3. Mice were then divided into two experimental groups of five animals each, which received the following treatments as intra-tumoral injections: group A, vehicle control (7% DMSO in sterile saline); group B, CPZ treatment (40 μg). The injections were repeated every other day and for a total of at least 14 days.
Treatments. CPZ (5 mg) was diluted in 250 μl of 100% DMSO to yield a final concentration of 20 μg/μl of stock solution. Stock solution (100 m) was subsequently diluted in 7% DMSO in sterile saline generating a final concentration of 1 μg/μl. […] Control xenografts were injected intra-tumorally with 40 μl of vehicle control (7% DMSO). Mice were monitored daily for tumor growth, cachexia, and weight loss. Tumor volumes and body weight were recorded every other day. Tumor volumes were calculated by the formula: (4π/3)×(w/2)2×(l/2), where w=width and l=length. Measurements were made using a digital caliper. At the conclusion of the experiments, mice were anaesthetized with isoflurane and cervical dislocation, blood was collected, and the serum was separated and stored at −80° C. until assayed. Biochemical analysis of serum was performed by the Mouse Metabolic Phenotyping Center (Yale School of Medicine, New Haven, Conn.). […]

The next series has as its system SCC25 xenografts. Briefly: OSCC mouse xenograft model, SCC25. It is filed as in vivo, athymic nude (nu/nu) mice.
Source text: as §1
OSCC Mouse Xenograft Model. Mice were injected subcutaneously in the right flank with 2×10^6 HSC3, SCC4, or SCC25 cells in 0.1 ml of sterile phosphate buffered saline (each of these cell lines is published in scientific literature). Four weeks post-inoculation, tumors had grown to an average volume of 110 mm^3. […] The injections were repeated every other day and for a total of at least 14 days.
Treatments. CPZ (5 mg) was diluted in 250 μl of 100% DMSO to yield a final concentration of 20 μg/μl of stock solution. Stock solution (100 m) was subsequently diluted in 7% DMSO in sterile saline generating a final concentration of 1 μg/μl. […] Control xenografts were injected intra-tumorally with 40 μl of vehicle control (7% DMSO). Mice were monitored daily for tumor growth, cachexia, and weight loss. Tumor volumes and body weight were recorded every other day. Tumor volumes were calculated by the formula: (4π/3)×(w/2)2×(l/2), where w=width and l=length. Measurements were made using a digital caliper. At the conclusion of the experiments, mice were anaesthetized with isoflurane and cervical dislocation, blood was collected, and the serum was separated and stored at −80° C. until assayed. Biochemical analysis of serum was performed by the Mouse Metabolic Phenotyping Center (Yale School of Medicine, New Haven, Conn.). Tumors were dissected and placed in 10% neutral buffered formalin (SIGMA, St. Louis, Mo.) and processed for histological analysis.

Series [2] concerns breast cancer cell line MDA231. Briefly: Additional cell proliferation assay, MDA231. Type of series: cell-based, human. The following applies: MDA231, 24 hour treatment. From the text: Observed reductions in cell proliferation in these additional in vitro studies are as follows: SCC4, 40%; HSC3, 50%; SCC25, 80%; Cal27, 15%; MDA231, 56%; and LnCap, 37%.
The nature of series [3]: Tolerability observations in tumor bearing mice treated intratumorally. Type of series: in vivo. The procedure: Treatments. CPZ (5 mg) was diluted in 250 μl of 100% DMSO to yield a final concentration of 20 μg/μl of stock solution. Stock solution (100 m) was subsequently diluted in 7% DMSO in sterile saline generating a final concentration of 1 μg/μl. A total of 40 μg in 40 μl was injected intra-tumorally. Control xenografts were injected intra-tumorally with 40 μl of vehicle control (7% DMSO). Mice were monitored daily for tumor growth, cachexia, and weight loss. Tumor volumes and body weight were recorded every other day. Tumor volumes were calculated by the formula: (4π/3)×(w/2)2×(l/2), where w=width and l=length. Measurements were made using a digital caliper. At the conclusion of the experiments, mice were anaesthetized with isoflurane and cervical dislocation, blood was collected, and the serum was separated and stored at −80° C. until assayed. Biochemical analysis of serum was performed by the Mouse Metabolic Phenotyping Center (Yale School of Medicine, New Haven, Conn.). Tumors were dissected and placed in 10% neutral buffered formalin (SIGMA, St. Louis, Mo.) and processed for histological analysis.

As to `Oc1cc2c(cc1O)CN(C(=S)NCCc1ccc(Cl)cc1)CCC2` [CPZ, 2-[2-(4-chlorphenyl)ethylamino-thiocarbonyl]-7,8-dihydroxy-2,3,4,5-tetrahydro-1H-2-benzazepine], the apoptosis result in series [1] is listed as “undergo apoptosis”. For the same compound, the tumor growth rate result in the series on SCC4 xenografts (40 μg CPZ intra-tumoral every other day, two weeks, p<0.05) is listed as “significant reduction in tumor growth rate”. In addition, the “growth of vehicle-control-treated tumors versus CPZ treated” value in the series with SCC4 xenografts (40 μg CPZ, day sixteen, p<0.01) was “two-fold greater”. For the same compound, in the series on SCC4 xenografts (60 μg CPZ, repeat experiments (data not shown)), the “difference in tumor growth rates between vehicle control and treated mice” value stood at 3 fold. For the same compound, the “decrease in tumor volume” value in the series on SCC25 xenografts (20 μg CPZ (1 μg/μl) injections over two weeks, FIG. 13) is reported as 57.5%. Also, the healing of xenografts entry in the series with SCC25 xenografts (20 μg CPZ intra-tumoral every other day) was “Nearly complete healing”. In addition, the tumor volume entry with SCC25 xenografts (20 μg CPZ intra-tumoral every other day, two weeks, p<0.05) was “significant reduction in tumor volume”. The “reduction in cell proliferation” value in series [2] is 56%. In addition, the body weight result in series [3] (approximately two-week intra-tumoral CPZ treatment) is reported as “did not lose weight”. In addition, the adjacent healthy tissues entry in series [3] (intratumoral injection with CPZ) is recorded as “No inflammation, ulceration, necrosis or pain were evident”.
